This passage reports logP results from ChEMBL document CHEMBL1158810, “Efficiency of foam fractionation for the enrichment of nonpolar compounds from aqueous extracts of plant materials” (J Nat Prod, 2005).

Each structure is given as a SMILES string.

The first data set in a line: Octanol-water partition coefficient, log POW of the compound. In kind it is physicochemical.
Settings: not given
In turn, `COc1cc(/C=C/C(=O)CC(=O)/C=C/c2ccc(O)c(OC)c2)ccc1O` [CURCUMIN] yielded a logP of 1.15.

Staying with this data set, now noted: read-out: logP.
On to `CC(C)=CCC1=C(O)C(C(=O)C(C)C)=C(O)[C@](O)(CC=C(C)C)C1=O`, for which the logP was determined as 2.92. Still for that read-out and setting: then `CC(C)=CCC1=C(O)C(C(=O)CC(C)C)=C(O)[C@](O)(CC=C(C)C)C1=O`, with 3.01; and `Oc1cc(O)c2c(c1)O[C@H](c1ccc(O)c(O)c1)[C@H](O)C2` [(-)-EPICATECHIN], with 0.67. With `CC1=C(/C=C/C(C)=C/C=C/C(C)=C/C=C/C=C(C)/C=C/C=C(C)/C=C/C2=C(C)CCCC2(C)C)C(C)(C)CCC1` [BETA CAROTENE], the lipophilicity (logP) was found to be 4.19. Same read-out and setting: the result for `O=C(/C=C/c1ccc(O)cc1)CC(=O)/C=C/c1ccc(O)cc1` [BISDEMETHOXYCURCUMIN] reads 0.85; that for `Oc1cc(O)c2c(c1)O[C@H](c1ccc(O)c(O)c1)[C@@H](O)C2` [CIANIDANOL], 0.53. As for `COc1cc(/C=C/C(O)=C/C(=O)/C=C/c2ccc(O)cc2)ccc1O` [DEMETHOXYCURCUMIN], the logP stood at 1. `O=C(O[C@@H]1Cc2c(O)cc(O)cc2O[C@@H]1c1ccc(O)c(O)c1)c1cc(O)c(O)c(O)c1` [EPICATECHIN GALLATE]: the lipophilicity (logP) stood at 0.07.

On to `Oc1cc(O)c2c(c1)O[C@H](c1cc(O)c(O)c(O)c1)[C@H](O)C2` [EPIGALLOCATECHIN], for which the logP was determined as 0.13. In the case of `O=C(O[C@@H]1Cc2c(O)cc(O)cc2O[C@@H]1c1cc(O)c(O)c(O)c1)c1cc(O)c(O)c(O)c1` [EPIGALOCATECHIN GALLATE], the logP is 0.09.

Take `O=C(O[C@@H]1Cc2c(O)cc(O)cc2O[C@H]1c1cc(O)c(O)c(O)c1)c1cc(O)c(O)c(O)c1` [GALLOCATECHIN GALLATE]: the logP amounted to 0.12. `COc1ccc([C@@H]2CC(=O)c3c(O)cc(O[C@@H]4O[C@H](CO[C@@H]5O[C@@H](C)[C@H](O)[C@@H](O)[C@H]5O)[C@@H](O)[C@H](O)[C@H]4O)cc3O2)cc1O` [HESPERIDIN]: the logP is -0.21. On to `CC1=C[C@H](O)CC(C)(C)[C@H]1/C=C/C(C)=C/C=C/C(C)=C/C=C/C=C(C)/C=C/C=C(C)/C=C/C1=C(C)C[C@@H](O)CC1(C)C` [LUTEIN], for which the logP is 3.89. Turning to `C[C@@H]1O[C@@H](O[C@H]2[C@H](Oc3cc(O)c4c(c3)O[C@H](c3ccc(O)cc3)CC4=O)O[C@H](CO)[C@@H](O)[C@@H]2O)[C@H](O)[C@H](O)[C@H]1O` [NARINGIN], the logP is -0.15.

The logP is the decadic logarithm of the partition coefficient of the neutral form, usually between octanol and water.
